30 compounds from patent US10954232B2, “Pyrazole derivative as ALK5 inhibitor and uses thereof” (HANMI PHARMACEUTICAL CO., LTD., priority 2016, dated 2021) can be followed below.

Structures are written as SMILES.

The IC50 is the midpoint of a concentration-inhibition curve. A high value points to a need for much substance.

For this experiment, the target named is T1, ALK5 kinase (Homo sapiens, UniProt P36897).
T1 construct: GST; purchased Thermo Fisher Scientific Solutions
T1 sequence (P36897 34-503): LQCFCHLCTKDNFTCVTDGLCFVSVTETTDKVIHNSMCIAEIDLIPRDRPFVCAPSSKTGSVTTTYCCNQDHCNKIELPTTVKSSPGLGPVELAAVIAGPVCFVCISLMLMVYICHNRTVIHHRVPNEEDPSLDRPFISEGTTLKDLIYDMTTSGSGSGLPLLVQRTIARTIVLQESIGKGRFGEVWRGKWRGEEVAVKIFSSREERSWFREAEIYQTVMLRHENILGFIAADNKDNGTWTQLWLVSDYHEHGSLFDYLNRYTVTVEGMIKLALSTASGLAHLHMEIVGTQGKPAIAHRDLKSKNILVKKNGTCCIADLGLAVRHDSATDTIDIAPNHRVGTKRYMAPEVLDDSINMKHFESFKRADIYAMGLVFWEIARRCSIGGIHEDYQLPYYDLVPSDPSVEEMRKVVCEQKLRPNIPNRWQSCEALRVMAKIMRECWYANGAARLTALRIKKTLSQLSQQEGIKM
The experiment can be described thus: Activity inhibition test on ALK5 enzyme (LanthaScreen Eu binding kinase assay). The following applies: kinase tracer 178, 60 minutes at room temperature. The procedure, abridged: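 IC50 is the concentration giving 50% inhibition relative to control, taken from fluorescence after 60 min stirring at room temperature. Final mix held kinase 5 nM, Eu-GST binding antibody 2 nM and tracer 178 10 nM. Compounds were serially diluted from 1 μM to 0.0001 μM.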
A general note: Time-resolved FRET reads energy transfer from a long-lived donor to a nearby acceptor.
For the compound `Cc1cccc(-n2nc(C(=O)Nc3nccs3)cc2-c2ccc3ncsc3c2)n1` [Example 75, 5-(benzo[d]thiazol-6-yl)-1-(6-methylpyridin-2-yl)-N-(thiazol-2-yl)-1H-pyrazole-3-carboxyamide], the concentration for half-maximal inhibition (IC50) is 7.4 nM. Under `Cc1cccc(-n2nc(C(=O)NCc3ccccc3)cc2-c2ccc3ncsc3c2)n1` [Example 76, 5-(benzo[d]thiazol-6-yl)-N-benzyl-1-(6-methylpyridin-2-yl)-1H-pyrazole-3-carboxyamide] stands ~10 nM; under `Cc1cccc(-n2nc(C(=O)NCc3ccccc3F)cc2-c2ccc3ncsc3c2)n1` [Example 77, 5-(benzo[d]thiazol-6-yl)-N-(2-fluorobenzyl)-1-(6-methylpyridin-2-yl)-1H-pyrazole-3-carboxyamide], 7.2 nM.

In the case of `Cc1cccc(-n2nc(C(=O)NCc3cccc(F)c3)cc2-c2ccc3ncsc3c2)n1` [Example 78, 5-(benzo[d]thiazol-6-yl)-N-(3-fluorobenzyl)-1-(6-methylpyridin-2-yl)-1H-pyrazole-3-carboxyamide], the half-inhibitory concentration (IC50) came to 3.4 nM. `Cc1cccc(-n2nc(C(=O)NCc3ccc(F)cc3)cc2-c2ccc3ncsc3c2)n1` [Example 79, 5-(benzo[d]thiazol-6-yl)-N-(4-fluorobenzyl)-1-(6-methylpyridin-2-yl)-1H-pyrazole-3-carboxyamide] displayed a half-inhibitory concentration (IC50) of 5.6 nM. Under `Cc1cccc(-n2nc(C(=O)Nc3cnn(S(C)(=O)=O)c3)cc2-c2ccc3ncsc3c2)n1` [Example 80, 5-(benzo[d]thiazol-6-yl)-1-(6-methylpyridin-2-yl)-N-(1-(methylsulfonyl)-1H-pyrazol-4-yl)-1H-pyrazole-3-carboxyamide] stands 1.3 nM; under `Cc1cccc(-n2nc(C(=O)Nc3cnn(S(=O)(=O)C4CC4)c3)cc2-c2ccc3ncsc3c2)n1` [Example 81, 5-(benzo[d]thiazol-6-yl)-N-(1-(cyclopropylsulfonyl)-1H-pyrazol-4-yl)-1-(6-methylpyridin-2-yl)-1H-pyrazole-3-carboxyamide], 1.5 nM. The value for `Cc1cccc(-n2nc(C(=O)Nc3cccc(O)c3)cc2-c2ccc3ncsc3c2)n1` [Example 82, 5-(benzo[d]thiazol-6-yl)-N-(3-hydroxyphenyl)-1-(6-methylpyridin-2-yl)-1H-pyrazole-3-carboxyamide] was 2.7 nM; that for `Cc1cccc(-n2nc(C(=O)Nc3ccc(O)cc3)cc2-c2ccc3ncsc3c2)n1` [Example 83, 5-(benzo[d]thiazol-6-yl)-N-(4-hydroxyphenyl)-1-(6-methylpyridin-2-yl)-1H-pyrazole-3-carboxyamide] was 0.7 nM.

The compound `Cc1cccc(-n2nc(C(=O)Nc3cccc(CO)c3)cc2-c2ccc3ncsc3c2)n1` [Example 84, 5-(benzo[d]thiazol-6-yl)-N-(3-(hydroxymethyl)phenyl)-1-(6-methylpyridin-2-yl)-1H-pyrazole-3-carboxyamide] displayed an IC50 of 3.9 nM. Consider `Cc1cccc(-n2nc(C(=O)Nc3ccc(CO)cc3)cc2-c2ccc3ncsc3c2)n1` [Example 85, 5-(benzo[d]thiazol-6-yl)-N-(4-(hydroxymethyl)phenyl)-1-(6-methylpyridin-2-yl)-1H-pyrazole-3-carboxyamide], for which the half-maximal inhibitory concentration (IC50) came out at 3.8 nM. For the compound `Cc1cccc(-n2nc(C(=O)Nc3ccc(N)cc3)cc2-c2ccc3ncsc3c2)n1` [Example 86, N-(4-aminophenyl)-5-(benzo[d]thiazol-6-yl)-1-(6-methylpyridin-2-yl)-1H-pyrazole-3-carboxyamide], the IC50 was 1.1 nM. `CCCCNc1ccc(NC(=O)c2cc(-c3ccc4ncsc4c3)n(-c3cccc(C)n3)n2)cc1` [Example 87, 5-(benzo[d]thiazol-6-yl)-N-(4-(butylamino)phenyl)-1-(6-methylpyridin-2-yl)-1H-pyrazole-3-carboxyamide] showed an IC50 of 9.1 nM.

For the compound `Cc1cccc(-n2nc(C(=O)Nc3ccc(NC4CC4)cc3)cc2-c2ccc3ncsc3c2)n1` [Example 88, 5-(benzo[d]thiazol-6-yl)-N-(4-(cyclopropylamino)phenyl)-1-(6-methylpyridin-2-yl)-1H-pyrazole-3-carboxyamide], the half-inhibitory concentration (IC50) is 3.5 nM. Turning to `Cc1cccc(-n2nc(C(=O)Nc3ccc(S(C)(=N)=O)cc3)cc2-c2ccc3ncsc3c2)n1` (stereo not drawn) [Example 89, 5-(benzo[d]thiazol-6-yl)-1-(6-methylpyridin-2-yl)-N-(4-(S-methylsulfonimidoyl)phenyl)-1H-pyrazole-3-carboxyamide], the IC50 worked out at 3.5 nM. Under `COc1ccccc1NC(=O)c1cc(-c2ccc3ncnn3c2)n(-c2cccc(C)n2)n1` [Example 90, 5-([1,2,4]triazolo[1,5-α]pyridin-6-yl)-N-(2-methoxyphenyl)-1-(6-methylpyridin-2-yl)-1H-pyrazole-3-carboxyamide] stands 5 nM; under `COc1cccc(NC(=O)c2cc(-c3ccc4ncnn4c3)n(-c3cccc(C)n3)n2)c1` [Example 91, 5-([1,2,4]triazolo[1,5-α]pyridin-6-yl)-N-(3-methoxyphenyl)-1-(6-methylpyridin-2-yl)-1H-pyrazole-3-carboxyamide], 10 to 100 nM; under `COc1ccccc1NC(=O)c1cc(-c2ccc3ncnn3c2)n(-c2cccc(C)n2)n1` [Example 92, 5-([1,2,4]triazolo[1,5-α]pyridin-6-yl)-N-(2-methoxyphenyl)-1-(6-methylpyridin-2-yl)-1H-pyrazole-3-carboxyamide], 10 to 100 nM.

`Cc1cccc(-n2nc(C(=O)Nc3ccc(O)cc3)cc2-c2ccc3ncnn3c2)n1` [Example 93, 5-([1,2,4]triazolo[1,5-α]pyridin-6-yl)-N-(4-hydroxyphenyl)-1-(6-methylpyridin-2-yl)-1H-pyrazole-3-carboxyamide] returned an IC50 of 3.9 nM. The value for `Cc1cccc(-n2nc(C(=O)Nc3ccc(OC(C)C)cc3)cc2-c2ccc3ncnn3c2)n1` [Example 94] was ~10 nM.

Consider `COCCOc1ccc(NC(=O)c2cc(-c3ccc4ncnn4c3)n(-c3cccc(C)n3)n2)cc1` [Example 95, 5-([1,2,4]triazolo[1,5-α]pyridin-6-yl)-N-(4-(2-methoxyethoxy)phenyl)-1-(6-methylpyridin-2-yl)-1H-pyrazole-3-carboxyamide], for which the IC50 was 25 nM. `Cc1cccc(-n2nc(C(=O)Nc3ccc4c(c3)OCO4)cc2-c2ccc3ncnn3c2)n1` [Example 96, 5-([1,2,4]triazolo[1,5-α]pyridin-6-yl)-N-(benzo[d][1,3]dioxol-5-yl)-1-(6-methylpyridin-2-yl)-1H-pyrazole-3-carboxyamide] registered an IC50 of 3.5 nM. `COc1ccc(NC(=O)c2cc(-c3ccc4ncnn4c3)n(-c3cccc(C)n3)n2)c(F)c1` [Example 97, 5-([1,2,4]triazolo[1,5-α]pyridin-6-yl)-N-(2-fluoro-4-methoxyphenyl)-1-(6-methylpyridin-2-yl)-1H-pyrazole-3-carboxyamide] came in with a half-inhibitory concentration (IC50) of 10 to 100 nM.

The compound `COc1ccc(NC(=O)c2cc(-c3ccc4ncnn4c3)n(-c3cccc(C)n3)n2)cc1F` [Example 98, 5-([1,2,4]triazolo[1,5-α]pyridin-6-yl)-N-(3-fluoro-4-methoxyphenyl)-1-(6-methylpyridin-2-yl)-1H-pyrazole-3-carboxyamide] showed a 50% inhibitory concentration (IC50) of 5.3 nM. The value for `Cc1cccc(-n2nc(C(=O)Nc3ccccc3OC(F)(F)F)cc2-c2ccc3ncnn3c2)n1` [Example 99, 5-([1,2,4]triazolo[1,5-α]pyridin-6-yl)-1-(6-methylpyridin-2-yl)-N-(2-(trifluoromethoxy)phenyl)-1H-pyrazole-3-carboxyamide] was ~10 nM. As for `Cc1cccc(-n2nc(C(=O)Nc3cccc(OC(F)(F)F)c3)cc2-c2ccc3ncnn3c2)n1` [Example 100, 5-([1,2,4]triazolo[1,5-α]pyridin-6-yl)-1-(6-methylpyridin-2-yl)-N-(3-(trifluoromethoxy)phenyl)-1H-pyrazole-3-carboxyamide], the half-inhibitory concentration (IC50) lay in the range of 10 to 100 nM.

Regarding `Cc1cccc(-n2nc(C(=O)Nc3ccc(OC(F)(F)F)cc3)cc2-c2ccc3ncnn3c2)n1` [Example 101, 5-([1,2,4]triazolo[1,5-α]pyridin-6-yl)-1-(6-methylpyridin-2-yl)-N-(4-(trifluoromethoxy)phenyl)-1H-pyrazole-3-carboxyamide], the IC50 fell in the range of 10 to 100 nM. In turn, `Cc1cccc(-n2nc(C(=O)Nc3cccc(N(C)C)c3)cc2-c2ccc3ncnn3c2)n1` [Example 102, 5-([1,2,4]triazolo[1,5-α]pyridin-6-yl)-N-(3-(dimethylamino)phenyl)-1-(6-methylpyridin-2-yl)-1H-pyrazole-3-carboxyamide] had a half-inhibitory concentration (IC50) of 10 to 100 nM. The value for `Cc1cccc(-n2nc(C(=O)Nc3ccc(N)cc3)cc2-c2ccc3ncnn3c2)n1` [Example 103, 5-([1,2,4]triazolo[1,5-α]pyridin-6-yl)-N-(4-aminophenyl)-1-(6-methylpyridin-2-yl)-1H-pyrazole-3-carboxyamide] was 9.1 nM; that for `Cc1cccc(-n2nc(C(=O)Nc3ccc(N(C)C)cc3)cc2-c2ccc3ncnn3c2)n1` [Example 104, 5-([1,2,4]triazolo[1,5-α]pyridin-6-yl)-N-(4-(dimethylamino)phenyl)-1-(6-methylpyridin-2-yl)-1-H-pyrazole-3-carboxyamide] was 7 nM.
